The results in this text go back to patent US7790894B2, “Mycobacterial inhibitors” (Janssen Pharmaceutica NV, priority 2004, dated 2010).

Usually melting point stands for the temperature, or range, at which the solid turns liquid.

In one series the test system is M. Smegmatis ATCC607. The experiment in a line: In-vitro anti-bacterial activity against strain M. smegmatis ATCC607 (growth inhibition, Alamar Blue fluorescence). The note with it: strain ATCC607, 48 hours at 37° C.; for IC50: Mycolicibacterium smegmatis, ATCC607, 48 h, read-out: M. smegmatis pIC50 (converted). Format: cell-based. The method, then:
D.2. In-Vitro Method for Testing Compounds for Anti-Bacterial Activity Against Strain M. Smegmatis ATCC607 Flat-bottom, sterile 96-well plastic microtiter plates were filled with 180 μl of sterile deionized water, supplemented with 0.25% BSA. […] Serial five-fold dilutions (45 μl in 180 μl) were made directly in the microtiter plates from column 2 to 11 using a customised robot system (Zymark Corp. Hopkinton, Mass.). Pipette tips were changed after every 3 dilutions to minimize pipetting errors with high hydrophobic compounds. […] Approximately 250 CFU per well of bacteria inoculum, in a volume of 100 μl in 2.8× Mueller-Hinton broth medium, was added to the rows […]. The same volume of broth medium without inoculum was added to column 12 in row A to H. The cultures were incubated at 37° C. for 48 hours in a humidified 5% CO2 atmosphere (incubator with open air valve and continuous ventilation). At the end of incubation, two days after inoculation, the bacterial growth was quantitated fluorometrically. Therefore Alamar Blue (10×) was added to all wells in a volume of 20 μl and plates were incubated for another 2 hours at […] The fluorescence was read in a computer-controlled fluorometer (Cytofluor, Biosearch) at an excitation wavelength of 530 nm and an emission wavelength of 590 nm (gain 30). The % growth inhibition achieved by the compounds was calculated according to standard methods. The pIC50 was defined as the 50% inhibitory concentration for bacterial growth.
For orientation: Resazurin is reduced to fluorescent resorufin, in cell work by metabolically active cells.

Series [1] relates to Mycobacterium tuberculosis (strain H37RV). Nature of the series: In-vitro testing against M. tuberculosis (growth inhibition, Resazurin fluorescence). Format: cell-based. The note with it: 168 h, 7 days at 37° C., bacterial growth, read-out: M. tuberculosis pIC50 (converted).

Consider `CN(C)CC[C@](O)(c1cccc2ccccc12)C(Cc1ccccc1)c1ccc2cc(Br)ccc2n1` (stereo partly shown) [Compound 2], for which the melting point amounted to 143 °C. The IC50 in the series with M. Smegmatis ATCC607 is 316 nM.

Turning to `CN(C)CC[C@@](O)(c1cccc2ccccc12)C(Cc1ccccc1)c1ccc2cc(Br)ccc2n1` (stereo partly shown) [Compound 3], the melting point came to 69 °C. The IC50 with M. Smegmatis ATCC607 is 2000 nM.

In turn, `CN(C)CC[C@](O)(c1cc(F)cc(F)c1)[C@@H](c1ccccc1)c1cc(Br)cc2c(-c3ccccc3)cc(Cl)nc12` [Compound 11] displayed a melting point of 220 °C. Further, the IC50 in the series on M. Smegmatis ATCC607 was 2000 nM.

In turn, `CN(C)CC[C@@](O)(c1cccc(F)c1)C(c1ccccc1)c1ccc2cc(Br)ccc2n1` (stereo partly shown) [Compound 6] registered a melting point of 134 °C. In addition, in the series with M. Smegmatis ATCC607, the IC50 was 12600 nM.

As to `CCc1cc2cc(C(c3ccccc3)C(O)(CCN(C)C)c3cc(F)cc(F)c3)ccc2nc1Cl` (single isomer, unassigned) [Compound 15], the IC50 in series [1] is 10000 nM; in the series on M. Smegmatis ATCC607 it was 398 nM.

The compound `CN(C)CC[C@](O)(c1cccc(F)c1)C(Cc1ccccc1)c1ccc2cc(Br)ccc2n1` (stereo partly shown) [Compound 1] displayed a melting point of 136 °C. In the series on M. Smegmatis ATCC607, the IC50 was 631 nM.

As for `CCc1cc2ccc([C@H](c3ccccc3)[C@@](O)(CCN(C)C)c3cc(F)cc(F)c3)cc2nc1Cl` [Compound 9], in the series with M. Smegmatis ATCC607, the “M. smegmatis pIC50” value was 5.8.

For the compound `CCc1cc2ccc([C@H](c3ccccc3)[C@@](O)(CCN(C)C)c3cccc4ccccc34)cc2nc1Cl` [Compound 8], in the series with M. Smegmatis ATCC607, the IC50 is 1580 nM.

In the case of `CCc1cc2ccc([C@H](c3ccccc3)[C@@](O)(CCN(C)C)c3cc(F)cc(F)c3)cc2nc1Cl` [Compound 10], the IC50 in series [1] was 7940 nM; in the series on M. Smegmatis ATCC607, 1260 nM.
